Source: patent US11767305B2, “Advantageous benzofuran compositions for mental disorders or enhancement” (Tactogen Inc, priority 2020, dated 2023)

Key:
5-HT1BR = 5-HT1BR (Homo sapiens (Human), UniProt P28222); test: 5-HT1BR cAMP secondary messenger agonist assay (HitHunter, CHO-K1); type: cell-based
Source text: (§1) The 5-HT1BR cAMP secondary messenger agonist assay used a panel of CHO-K1 cell lines stably expressing non-tagged GPCRs that endogenously signal through cAMP. Hit Hunter® cAMP assays monitored the activation of a GPCR via Gi and Gs secondary messenger signaling in a homogenous, non-imaging assay format using DiscoverX Enzyme Fragment Complementation (EFC) with β-galactosidase as the functional endpoint.
The enzyme was split into two complementary portions: Enzyme Acceptor (EA) and Enzyme Donor (ED). Exogenously introduced ED fused to cAMP (ED-cAMP) competed with endogenously generated cAMP for binding to an anti-cAMP-specific antibody. Active β-galactosidase was formed by complementation of exogenous EA to any unbound ED-cAMP.
(§2) Cell lines were expanded from freezer stocks according to standard procedures. Cells were seeded in a total volume of 20 μL into white walled, 384-well microplates and incubated at 37° C. for the appropriate time prior to testing. cAMP modulation was determined using the DiscoverX HitHunter cAMP XS+ assay.
For agonist determination, cells were incubated with sample (in the presence of EC80 forskolin to induce response if measuring Gi secondary messenger signaling). Media was aspirated from cells and replaced with 15 μL 2:1 HBSS/10 mM Hepes:cAMP XS+ Ab reagent. Intermediate dilution of sample stocks was performed to generate 4×sample in assay buffer (optionally containing 4×EC80 forskolin). 5 μL of 4×sample was added to cells and incubated at 37° C. or room temperature for 30 or 60 minutes, as appropriate. Final assay vehicle concentration was 1%.

5-HT2B = 5-HT2B (Homo sapiens (Human), UniProt P41595); test: 5-HT2B agonist and antagonist calcium assay (Calcium NWPLUS, FLIPR); type: cell-based
adrenergic β2 receptor = adrenergic β2 receptor (Homo sapiens (Human), UniProt P07550); test: Adrenergic β2 receptor cAMP secondary messenger antagonist assay; type: cell-based
Source text: as §1, with “This” for “The 5-HT1BR cAMP secondary messenger agonist”
The enzyme was split into two complementary portions: Enzyme Acceptor (EA) and Enzyme Donor (ED). In the assay, exogenously introduced ED fused to cAMP (ED-cAMP) competed with endogenously generated cAMP for binding to an anti-cAMP-specific antibody. […] Active enzyme could then convert a chemiluminescent substrate, generating an output signal detectable on a standard microplate reader.
as §2, with “assay. […]” for “assay.”
Compound activity was analyzed using CBIS data analysis suite (ChemInnovation, CA). For Gs antagonist mode assays, percentage inhibition was calculated as 100%×(1−(mean RLU of test sample−mean RLU of vehicle control)/(mean RLU of EC80 control−mean RLU of vehicle control)).

MAO-A = MAO-A (Homo sapiens (Human), UniProt P21397); test: MAO-A inhibition assay (kynuramine); type: biochemical
Method: MAO-A and test compounds were preincubated at 37° C. for 15 minutes before substrate addition. Test compounds were assayed at 10 concentrations with the highest concentration either 30 or 10 μM and subsequent concentrations using a 0.33 dilution factor. The reaction was initiated by addition of kynuramine and incubated at 37° C. for 30 minutes. The reaction was terminated by addition of NaOH. The amount of 4-hydroquioline formed was determined through spectrofluorimetric readout with the emission detection at 380 nm and excitation wavelength 310 nm.

[1] = molecular target: Nicotinic Acetylcholine Receptor α4β2 (nAchRa4/b2) (Homo sapiens (Human), UniProt P17787+P43681); test: Nicotinic acetylcholine receptor α4β2 ion channel blocking assay; type: cell-based
Method: Cell lines were expanded from freezer stocks according to standard procedures. Cells were seeded in a total volume of 20 μL into black-walled, clear-bottom, Poly-D-lysine coated 384-well microplates and incubated at 37° C. for the appropriate time prior to testing.
Assays were performed in 1×Dye Loading Buffer consisting of 1×Dye, and 2.5 mM freshly-prepared Probenecid when applicable.
Test compounds were assayed at 10 concentrations with the highest concentration either 30 or 10 μM and subsequent concentrations using a 0.33 dilution factor.
Prior to testing, cells were loaded with dye then incubated for 30-60 minutes at 37° C. For antagonist determination, cells were pre-incubated with sample. Dihydro-β-erythroidine was used as a positive control. Intermediate dilution of sample stocks was performed to generate 2-5×sample in assay buffer.
After dye loading, cells were moved from the incubator and 10-25 μL 2-5×sample was added to cells in the presence of EC80 agonist when appropriate. Cells were incubated for 30 minutes at room temperature in the dark to equilibrate plate temperature. Vehicle concentration was 1%.
Compound activity was measured on a FLIPRTetra(MDS) and analyzed using CBIS data analysis suite (ChemInnovation, CA). Percentage inhibition was calculated using the following formula: % Inhibition=100%×(1−(mean RLU of test sample−mean RLU of vehicle control)/(mean RLU of EC80 control−mean RLU of vehicle control)).

[2] = molecular target: human 5-HT transporter (hSERT) (Homo sapiens (Human), UniProt P31645); test: Human serotonin transporter  assay ([3H]imipramine radioligand, CHO cells); type: binding; conditions: SERT IC50 (μM), 2 nM [3H]imipramine
Method: Benzofuran derivatives were evaluated for inhibiting the human 5-HT transporter (hSERT) as expressed in CHO cells using an antagonist radioligand assay (Tatsumi, M. et al. (1999), Eur. J Pharmacol., 368: 277-283). […] Test compounds were assayed in three trials at […], and 0.94868 μM.

[3] = molecular target: T1, serotonin (5-HT) transporter (SERT) (Rattus norvegicus (Rat), UniProt P31652); test: Rat synaptosome SERT [3H]5-HT release assay; conditions: [3H]5-HT release via SERT EC50 (nM), 5 nM [3H]5-HT
[4] = molecular target: T1, serotonin (5-HT) transporter (SERT); test: Rat synaptosome SERT [3H]5-HT uptake inhibition assay; conditions: Inhibition of [3H]5-HT Uptake at SERT IC50 (nM), 5 nM [3H]5-HT

5-HT2B, sequence (P41595 whole entry, looked up, species assumed): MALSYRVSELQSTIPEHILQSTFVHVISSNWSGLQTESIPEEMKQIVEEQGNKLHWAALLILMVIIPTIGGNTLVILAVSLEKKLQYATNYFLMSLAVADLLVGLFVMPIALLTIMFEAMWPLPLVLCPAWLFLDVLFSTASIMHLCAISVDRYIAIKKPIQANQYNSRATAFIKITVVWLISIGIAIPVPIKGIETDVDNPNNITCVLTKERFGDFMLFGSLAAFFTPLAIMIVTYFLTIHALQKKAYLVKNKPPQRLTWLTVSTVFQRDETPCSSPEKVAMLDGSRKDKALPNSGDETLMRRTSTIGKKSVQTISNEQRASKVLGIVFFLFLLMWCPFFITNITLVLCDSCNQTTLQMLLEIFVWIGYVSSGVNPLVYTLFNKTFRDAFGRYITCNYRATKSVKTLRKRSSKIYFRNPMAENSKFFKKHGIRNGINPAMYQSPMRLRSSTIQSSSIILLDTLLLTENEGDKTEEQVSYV
Nicotinic Acetylcholine Receptor α4β2 (nAchRa4/b2), sequence (P43681 29-627 limits assumed): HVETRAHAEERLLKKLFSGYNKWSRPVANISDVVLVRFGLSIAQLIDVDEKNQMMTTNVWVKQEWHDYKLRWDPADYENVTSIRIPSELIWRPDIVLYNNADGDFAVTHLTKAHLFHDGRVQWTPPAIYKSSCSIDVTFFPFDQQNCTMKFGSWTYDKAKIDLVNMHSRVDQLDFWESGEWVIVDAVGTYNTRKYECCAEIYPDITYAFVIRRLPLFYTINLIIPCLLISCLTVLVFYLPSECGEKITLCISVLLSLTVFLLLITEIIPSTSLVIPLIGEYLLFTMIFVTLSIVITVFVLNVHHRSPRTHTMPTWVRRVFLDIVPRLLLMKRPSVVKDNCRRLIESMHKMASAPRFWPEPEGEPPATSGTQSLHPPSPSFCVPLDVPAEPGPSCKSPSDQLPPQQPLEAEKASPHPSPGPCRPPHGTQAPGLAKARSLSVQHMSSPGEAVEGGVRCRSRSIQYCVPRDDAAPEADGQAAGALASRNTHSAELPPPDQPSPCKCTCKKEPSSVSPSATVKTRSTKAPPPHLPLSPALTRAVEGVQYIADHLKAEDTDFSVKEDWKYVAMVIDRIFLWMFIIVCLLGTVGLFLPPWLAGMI
Nicotinic Acetylcholine Receptor α4β2 (nAchRa4/b2), sequence (P17787 26-502 limits assumed): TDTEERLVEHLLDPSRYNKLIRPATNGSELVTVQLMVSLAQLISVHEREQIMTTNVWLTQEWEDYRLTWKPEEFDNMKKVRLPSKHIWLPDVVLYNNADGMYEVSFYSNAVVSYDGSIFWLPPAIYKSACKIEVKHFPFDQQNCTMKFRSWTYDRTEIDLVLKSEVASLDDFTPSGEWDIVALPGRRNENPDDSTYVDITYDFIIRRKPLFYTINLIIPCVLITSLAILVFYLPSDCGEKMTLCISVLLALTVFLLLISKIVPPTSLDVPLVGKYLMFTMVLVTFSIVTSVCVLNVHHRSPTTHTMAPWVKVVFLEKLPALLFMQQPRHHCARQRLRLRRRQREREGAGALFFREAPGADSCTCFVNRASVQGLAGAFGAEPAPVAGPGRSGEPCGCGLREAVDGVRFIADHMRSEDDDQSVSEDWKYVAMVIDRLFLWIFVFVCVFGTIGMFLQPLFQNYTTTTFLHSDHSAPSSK
adrenergic β2 receptor, sequence (P07550 whole entry, looked up): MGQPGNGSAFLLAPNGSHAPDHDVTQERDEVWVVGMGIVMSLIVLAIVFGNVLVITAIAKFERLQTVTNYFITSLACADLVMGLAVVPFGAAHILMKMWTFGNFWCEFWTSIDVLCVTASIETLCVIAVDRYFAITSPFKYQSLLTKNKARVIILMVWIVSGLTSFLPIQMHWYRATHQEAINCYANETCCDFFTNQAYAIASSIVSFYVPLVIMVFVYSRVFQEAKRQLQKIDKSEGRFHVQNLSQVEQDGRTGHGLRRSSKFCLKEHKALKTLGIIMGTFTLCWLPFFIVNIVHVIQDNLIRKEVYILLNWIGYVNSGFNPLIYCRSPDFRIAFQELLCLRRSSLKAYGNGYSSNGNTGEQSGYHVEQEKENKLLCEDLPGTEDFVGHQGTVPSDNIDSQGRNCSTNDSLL
MAO-A, sequence (P21397 whole entry, looked up, species assumed): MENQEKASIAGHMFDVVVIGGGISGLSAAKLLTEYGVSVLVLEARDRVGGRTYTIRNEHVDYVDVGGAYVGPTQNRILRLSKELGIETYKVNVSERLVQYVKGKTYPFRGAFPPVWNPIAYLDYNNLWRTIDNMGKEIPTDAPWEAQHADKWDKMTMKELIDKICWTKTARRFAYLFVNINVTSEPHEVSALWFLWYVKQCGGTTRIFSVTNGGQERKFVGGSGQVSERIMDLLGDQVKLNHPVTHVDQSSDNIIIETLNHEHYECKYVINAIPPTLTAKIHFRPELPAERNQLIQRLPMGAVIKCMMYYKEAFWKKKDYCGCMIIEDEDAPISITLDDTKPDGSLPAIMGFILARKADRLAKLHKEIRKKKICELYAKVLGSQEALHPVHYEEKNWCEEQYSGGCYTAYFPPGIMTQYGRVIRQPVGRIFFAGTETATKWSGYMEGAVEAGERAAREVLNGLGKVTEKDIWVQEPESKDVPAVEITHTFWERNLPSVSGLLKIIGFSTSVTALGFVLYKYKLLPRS

How did the “Hill Coef.” value (5-HT1BR) turn out when `CN[C@H](C)Cc1ccc2ccoc2c1` [Compound R-6-MAPB, (R)-1-(benzofuran-6-yl)-N-methylpropan-2-amine] was run?
Its value is 1.14.

What about the EC50 (5-HT1BR; 5-HT1BR EC50 (μM)) of the same compound?
The EC50 was 1.48 µM.

And the EC50 (5-HT1BR; 5HT1B Agonist (μM))?
The EC50 was 1.48 µM.

What about the IC50 (5-HT2B) of the same compound?
The IC50 was 0.4 µM.

What about the IC50 (adrenergic β2 receptor) of the same compound?
Its IC50 is 4.06 µM.

What about the IC50 (MAO-A) of the same compound?
Its IC50 is 2.12 µM.

What about the IC50 [1] of the same compound?
The IC50 was 7.41 µM.

What about the IC50 [2] of the same compound?
Its IC50 is 24 µM.

What about the EC50 [3] of the same compound?
Its EC50 is 112 ± 17.5 nM.

And the IC50 [4]?
Its IC50 is 623 ± 31.2 nM.
